Read-outs that look alike come from different tables or passages of the source.
Legend:
[1] = tested on: rat C6 gliosarcoma cells; assay: In vitro survival study (BNCT, thermal neutron irradiation, colony formation), C6 cells; format: cell-based; details: C6 gliosarcoma tumor cells
Description: (§1) The preliminary in vitro killing effects of compound 3 were examined by using rat C6 gliosarcoma tumor cells and fibroblast-like synoviocytes (FLS) cells, respectively. The in vitro survival study was completed with the thermal neutron fluence ranging from 0 to 4.2 × 10^12 n/cm^2. The γ-ray dose presented in the experiment was monitored by thermoluminescent dosimeters (TLDs) attached to the tubes and ranged from 0 to 5 Sv. […] A low surviving fraction of around 0.01 was obtained by compound 3 after irradiation for 50 min.
(§2) The in vitro assessments were carried out according to methods reported in the literature. […] The inability of cells to adhere to Teflon allows precise quantitative manipulation of cells without trypsinization. […] The thermal neutron fluence was determined by averaging the activity of two gold films symmetrically attached to the Teflon tube surface along the thermal neutron axis. […] The neutron absorbed dose (Gy) was calculated using the flux-to-dose conversion factor [39, 40]. […] The γ-ray dose was monitored by thermoluminescent dosimeters (TLDs) (Kyoto, Japan) attached to the tubes, and it ranged from 0 to 5 Sv. […] The colonies were fixed and stained with a 10% formaldehyde/1% toluidine blue solution and then counted microscopically.
(§3) The in vitro BNCS was carried out in triplicate. […] The significance of the differences in survival rates was assessed by Student’s t-test. […]

[2] = tested on: rat fibroblast-like synoviocytes (FLS) cells; assay: In vitro survival study (BNCS, thermal neutron irradiation, colony formation), FLS cells; format: cell-based; details: same operating conditions as L-BPA
Description: as §1, §2, §3

[3] = tested on: rat FLS cells; assay: Cytotoxicity study, standard MTT assay; format: cell-based; details: 3 days of continuous exposure, no irradiation, read-out: IC50 (growth inhibition, cytotoxicity)
Protocol: The IC50 (moles/liter, M), the concentration that inhibited the growth of rat FLS cells by 50% after 3 days of continuous exposure, was determined using the standard MTT assay. Suspensions of 4.9 × 10^5 of rat fibroblast-like synoviocytes cells /200 μL MEM containing 20% FCS were incubated for 3 days using 96-well culture plates with various concentrations of the samples in dimethyl sulfoxide (DMSO). The damaged cells were detected at 490 nm optical absorbance by Aqueous One Solution Cell Proliferation Assay.
Figure S-4. 1H NMR of 3 in DMSO-d6.
2. Cytotoxicity study. For IC50 analysis, the standard MTT method was used to analyze IC50 of compound 3. The IC50 determinations were performed in the presence of serial dilutions of inhibitor (1000 μM to 3.906 µM, 1% DMSO, final) in complete reaction buffer and incubated for […].
Figure S-5. IC50 dose responsive curve of 3 for rat FLS cells. […]

[4] = tested on: rat C6 glioma cells; assay: Uptake of boron by rat C6 glioma cells (ICP-AES); format: cell-based; details: 24 h culture with boron agent
Description: (§4) The rat C6 glioma cells and fibroblast-like synoviocytes (FLS) cells were used to conduct the boron uptake of 3. The boron uptakes of clinically used L-BPA and BSH were also listed for comparation. The results reveal that 3 was able to permeate both C6 glioma cells and FLS cells. […] The higher membrane permeability provides enhanced boron concentration in the cell lines. […] Nevertheless, the detailed mechanism of 3 crossing cell membrane warrants further investigation.
(§5) According to literature, 3.7 × 10^8 rat FLS cells or 2.6 × 10^7 rat C6 glioma cells were seeded and cultured at […] (37 °C, 5% CO2) for 24 hrs. This culture fluid was removed therefrom by suction, culture fluids containing 1.5 mM of boron agent 3 with the boron concentrations of 3.0 mM, 1.5 mM, 18.0 mM, and 1.5 mM, respectively, were added and continued culturing for 24 h under the same conditions. These culture fluids were removed by suction and the cells were washed three times with PBS and treated with trypsin to recover the cells. The number of cells recovered was counted, and HNO3 (2N, 1.5 mL) was added and the resulting mixture was heated at 80 °C for 12 h. After filtering using a membrane filter, the boron concentration was determined by ICP-AES (Singapore).

[5] = tested on: rat FLS cells; assay: Uptake of boron by rat fibroblast-like synoviocytes cells (ICP-AES); format: cell-based; details: 24 h culture with boron agent
Description: as §4, §5

[6] = Solubility in organic solvents; format: physicochemical; details: organic solvents such as DMF, THF and DMSO
Description: Carboranyl sinomenine product was synthesized by a straightforward method as shown in Scheme 1. In this process, sinomenine anion was generated in situ from the reaction of sinomenine (1) with the excess quantity of potassium carbonate in N,N-dimethyl formide (DMF) solvent at room temperature under argon atmosphere. The resulting sinomenine anion reacted with 4-(methyl-ortho-carboranyl)-n-butyl iodide (2), prepared according to the literature method, to produce the carboranyl sinomenine (3) as a colorless solid in 54.3% yield after recrystallization from tetrahydrofuran (THF) solvent.

[7] = tested on: rat C6 glioma cells; design: method as in PMID 31260876; details: cited from earlier work
[8] = tested on: rat FLS cells; design: method as in PMID 15980490; details: cited from earlier work
[9] = tested on: malignant cells; details: background statement, no reference given; cited from earlier work

Compound: methylcarboranyl-n-butyl sinomenine [Compound 3]
- Surviving fraction ([1]; after thermal neutron irradiation for 50 min): around 0.01
- Killing effect improved compared with L-BPA ([1]; thermal neutron irradiation, same operating conditions as L-BPA): approximately nine times
- Killing effects enhanced compared with L-BPA [2]: approximately three times
- IC50 [3]: 310.4 ± 0.3 µM
- Boron amounts delivered to the cells [4]: 4.25 μg/10^7 cells
- Boron amounts delivered to the cells [5]: 3.04 μg/10^7 cells
- Solubility [6]: soluble in various organic solvents

Compound: sodium borocaptate [BSH]
- Boron amounts delivered to the cells [7]: 2.14 [21] μg/10^7 cells
- Boron amounts delivered to the cells [8]: 1.82 [31] μg/10^7 cells

Compound: N[C@@H](Cc1ccc(B(O)O)cc1)C(=O)O [L-BPA, 4-borono-L-phenylalanine]
- Boron amounts delivered to the cells [7]: 0.67 [21] μg/10^7 cells
- Boron amounts delivered to the cells [8]: 0.74 [31] μg/10^7 cells
- Concentration in malignant cells relative to blood and other healthy cells [9]: 2–4 times

From article PMC7587333, “Synthesis, Molecular Docking, and In Vitro Boron Neutron Capture Therapy Assay of Carboranyl Sinomenine” (Molecules, 2020)
